Assay results as given in patent US20230390319A1, “INTERFERON GENE STIMULATOR COMPOSITION COMPRISING INDOLIZINE DERIVATIVE AS ACTIVE INGREDIENT” (AJOU UNIVERSITY INDUSTRY-ACADEMIC COOPERATION FOUNDATION, priority 2020, published 2023).

Assays:
[1] = test system: ISRE reporter signal; test: ISRE luciferase reporter assay, THP-1 cells co-treated with compound and cGAMP; assay type: cell-based, Human; details: THP-1 cells, 20 μM of each compound, co-treated with cGAMP (1 μg/ml), 24 hours
Experimental: (§1) Human monocytic THP-1 wild-type (WT) and STING knockout (KO) cell lines were obtained from InvivoGen. Cells were cultured in 1×RPMI 1640 medium containing 10% fetal bovine serum (FBS, Hyclone), 2.05 mM L-glutamine (Hyclone) and 1% penicillin (Corning) in a humidified incubator at 37° C. under 5% CO2.
To confirm immune responses, THP-1 cells were placed in 384-well plates (Grenier), and treated with each compound and cGAMP (1 μg/ml), and after 24 hours, ISRE activity was analyzed. QUANTI-Luc assay (InvivoGen) was performed using the cell culture supernatant to confirm the luciferase reporter gene signal. Fluorescent signals were measured using a TECAN micro plate reader SPARK, and the results were normalized to DMSO control.
(§2) THP-1 cells were co-treated with each of 86 indolizine derivatives and a very small amount of cGAMP (1 μg/ml), the immune response of the THP-1 cells was examined by ISRE reporter assay, and the cytotoxicity of co-treatment was also evaluated (Table 1). All results were compared by normalization to the reporter assay results obtained by treatment with cGAMP alone. […] Thus, Compound 42 was used in subsequent experiments.

[2] = test system: THP-1 cells; test: Cell viability assay (CellTiter Clo) in THP-1 cells; assay type: cell-based, Human; details: THP-1 cells, 20 μM of each compound, co-treated with cGAMP (1 μg/ml)
Experimental: as §1
Cells were analyzed using CellTiter Clo (CTG, Promega). […] was measured using a TECAN micro plate reader SPARK. Results were normalized to DMSO control.
as §2

| SMILES | Normalized RU (relative unit of ISRE reporter signal) [1] | Normalized cell viability [2] |
| --- | --- | --- |
| CN(C)c1ccc(-c2cc(C(=O)c3ccccc3)n3ccccc23)cc1 [Compound 50] | 1.18 | 1.30 |
| COc1ccc(C(=O)c2cc(-c3ccc(C(F)(F)F)cc3)c3ccccn23)cc1 [Compound 51] | 6.08 | 1.32 |
| COc1ccc(C(=O)c2cc(-c3ccc(C(C)=O)cc3)c3ccccn23)cc1 [Compound 52] | 1.61 | 1.15 |
| COc1ccc(C(=O)c2cc(-c3ccccc3)c3ccccn23)cc1 [Compound 53] | 1.30 | 1.18 |
| COc1ccc(C(=O)c2cc(-c3ccc(OC)cc3)c3ccccn23)cc1 [Compound 54] | 1.51 | 1.16 |
| COc1ccc(C(=O)c2cc(-c3ccc(N(C)C)cc3)c3ccccn23)cc1 [Compound 55] | 1.65 | 1.24 |
| CCN(CC)c1ccc(C(=O)c2cc(-c3ccc(C(F)(F)F)cc3)c3ccccn23)cc1 [Compound 56] | 1.40 | 1.23 |
| CCN(CC)c1ccc(C(=O)c2cc(-c3ccc(C(C)=O)cc3)c3ccccn23)cc1 [Compound 57] | 0.93 | 1.40 |
| CCN(CC)c1ccc(C(=O)c2cc(-c3ccccc3)c3ccccn23)cc1 [Compound 58] | 0.66 | 1.01 |
| CCN(CC)c1ccc(C(=O)c2cc(-c3ccc(OC)cc3)c3ccccn23)cc1 [Compound 59] | 1.27 | 1.09 |
| CCN(CC)c1ccc(C(=O)c2cc(-c3ccc(N(C)C)cc3)c3ccccn23)cc1 [Compound 60] | 1.25 | 1.28 |
| CC(=O)c1ccn2c(C(=O)c3ccccc3)cc(-c3ccncc3)c2c1 [Compound 61] | 1.98 | 1.11 |
| CC(=O)c1ccn2c(C(=O)c3ccccc3)cc(-c3ccc(C)c(N)c3)c2c1 [Compound 62] | 2.86 | 1.23 |
| CC(=O)c1ccn2c(C(=O)c3ccccc3)cc(-c3ccc(N)cc3)c2c1 [Compound 63] | 2.08 | 0.98 |
| CCN(CC)c1ccc(-c2cc(C(=O)c3ccccc3)n3ccc(C(C)=O)cc23)cc1 [Compound 64] | 1.13 | 1.24 |
| CCCN(CCC)c1ccc(-c2cc(C(=O)c3ccccc3)n3ccc(C(C)=O)cc23)cc1 [Compound 65] | 1.13 | 1.25 |
| CC(=O)c1ccn2c(C(=O)c3ccccc3)cc(-c3ccc(C(=O)O)cc3)c2c1 [Compound 66] | 1.16 | 1.32 |
| O=C(c1ccccc1)c1cc(-c2ccncc2)c2ccccn12 [Compound 67] | 2.03 | 1.34 |
| Cc1ccc(-c2cc(C(=O)c3ccccc3)n3ccccc23)cc1N [Compound 68] | 3.16 | 1.17 |

| SMILES | Normalized RU (relative unit of ISRE reporter signal) [1] | Normalized cell viability [2] |
| --- | --- | --- |
| Nc1ccc(-c2cc(C(=O)c3ccccc3)n3ccccc23)cc1 [Compound 69] | 2.47 | 1.19 |
| CCN(CC)c1ccc(-c2cc(C(=O)c3ccccc3)n3ccccc23)cc1 [Compound 70] | 1.21 | 1.19 |
| CCCN(CCC)c1ccc(-c2cc(C(=O)c3ccccc3)n3ccccc23)cc1 [Compound 71] | 0.96 | 1.01 |
| CC(=O)c1cc(-c2ccc(C(F)(F)F)cc2)c2cc(C(F)(F)F)ccn12 [Compound 73] | 1.54 | 0.78 |
| CC(=O)c1ccc(-c2cc(C(C)=O)n3ccc(C(F)(F)F)cc23)cc1 [Compound 74] | 2.06 | 0.75 |
| CC(=O)c1cc(-c2ccccc2)c2cc(C(F)(F)F)ccn12 [Compound 75] | 1.76 | 1.25 |
| COc1ccc(-c2cc(C(C)=O)n3ccc(C(F)(F)F)cc23)cc1 [Compound 76] | 2.02 | 1.14 |
| CC(=O)c1cc(-c2ccc(N(C)C)cc2)c2cc(C(F)(F)F)ccn12 [Compound 77] | 1.24 | 1.28 |
| CC(=O)c1ccn2c(C(C)=O)cc(-c3ccc(C(F)(F)F)cc3)c2c1 [Compound 78] | 2.43 | 0.46 |
| CC(=O)c1ccc(-c2cc(C(C)=O)n3ccc(C(C)=O)cc23)cc1 [Compound 79] | 3.80 | 1.19 |
| CC(=O)c1ccn2c(C(C)=O)cc(-c3ccccc3)c2c1 [Compound 80] | 1.98 | 1.22 |
| COc1ccc(-c2cc(C(C)=O)n3ccc(C(C)=O)cc23)cc1 [Compound 81] | 2.27 | 1.17 |
| CC(=O)c1ccn2c(C(C)=O)cc(-c3ccc(N(C)C)cc3)c2c1 [Compound 82] | 2.57 | 1.16 |
| CC(=O)c1cc(-c2ccc(C(F)(F)F)cc2)c2ccccn12 [Compound 83] | 0.98 | 1.22 |
| CC(=O)c1ccc(-c2cc(C(C)=O)n3ccccc23)cc1 [Compound 84] | 2.37 | 1.10 |
| CC(=O)c1cc(-c2ccccc2)c2ccccn12 [Compound 85] | 2.90 | 1.22 |
| COc1ccc(-c2cc(C(C)=O)n3ccccc23)cc1 [Compound 86] | 2.46 | 1.22 |
| CC(=O)c1cc(-c2ccc(N(C)C)cc2)c2ccccn12 [Compound 87] | 2.59 | 1.30 |
